Measurements from PubChem BioAssay (NCI).
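Compound exposure: 48 hours, 5 concentrations, 96-well plates. TGI: concentration producing complete growth inhibition.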

What was measured:
Test in all cases: DTP human tumour cell line panel, 48 h
[1] = test system: OVCAR-8 ovarian
[2] = test system: 786-0 renal
[3] = test system: A549 NSCLC
[4] = test system: T-47D breast
[5] = test system: ACHN renal
[6] = test system: RXF 393 renal
[7] = test system: HS 578T breast
[8] = test system: SF-539 CNS
[9] = test system: IGROV1 ovarian
[10] = test system: BT-549 breast
[11] = test system: OVCAR-3 ovarian

| Structure (SMILES) | TGI [1] | TGI [2] | TGI [3] | TGI [4] | TGI [5] | TGI [6] | TGI [7] | TGI [8] | TGI [9] | TGI [10] | TGI [11] |
| --- | --- | --- | --- | --- | --- | --- | --- | --- | --- | --- | --- |
| COC(=O)c1c(C)cccc1C1CN=NC12Cc1cccc(C)c1C2=O (stereo unspecified) | > 100 µM | > 100 µM | 66.8 µM | > 100 µM | > 100 µM | > 100 µM | > 100 µM | 44.5 µM | > 100 µM | 88.6 µM | – |
| COC(CC1(CCNc2ccccc2)C(=O)N(COCC[Si](C)(C)C)c2ccccc21)OC (stereo unspecified) | 35.1 µM | 25.4 µM | 34.3 µM | 56.3 µM | 37.1 µM | 29.4 µM | 41.4 µM | – | 21.4 µM | 32.5 µM | 31.6 µM |
| CCn1c(O)c(C(=O)NC(C)c2ccc([N+](=O)[O-])cc2)c(=O)n(CC)c1=S (stereo unspecified) | – | 11.7 µM | 11.5 µM | 14.2 µM | 11.2 µM | 12 µM | 7.42 µM | 13.4 µM | 11.4 µM | 8.8 µM | 10.5 µM |
| C=C(C)[C@@H]1CC[C@]2(C(=O)OC3OC(COC4OC(CO)C(OC5OC(C)C(O)C(O)C5O)C(O)C4O)C(O)C(O)C3O)CC[C@]3(C)[C@H](CC[C@@H]4[C@@]5(C)CC[C@H](O)[C@@](C)(CO)[C@@H]5CC[C@]43C)[C@@H]12 (stereo partly specified) | > 10 µM | > 10 µM | > 10 µM | > 10 µM | > 10 µM | > 10 µM | > 9.62 µM | > 7.72 µM | > 10 µM | > 8.43 µM | 5.16 µM |
| CCCC(CC)c1cc(O)c(O)cc1C(CC)CCC (stereo unspecified) | > 10 µM | > 10 µM | > 10 µM | > 10 µM | > 10 µM | > 10 µM | > 10 µM | > 10 µM | > 10 µM | > 10 µM | > 10 µM |
| CC1Cc2c(cc(N)nc2Br)NC1=O (stereo unspecified) | > 100 µM | > 100 µM | > 100 µM | > 100 µM | > 100 µM | > 100 µM | > 100 µM | > 100 µM | > 100 µM | > 100 µM | > 100 µM |
| Cc1cc(C)c(C#N)c(SC(=S)NC(=O)c2ccccc2)n1 | – | > 100 µM | > 100 µM | > 100 µM | > 100 µM | > 100 µM | > 100 µM | > 100 µM | > 100 µM | > 100 µM | – |
| O=P1(N(CCCl)CCCl)NCCCO1 (stereo unspecified) | > 238 µM | > 250 µM | > 239 µM | > 250 µM | > 250 µM | > 250 µM | > 250 µM | > 250 µM | > 239 µM | > 250 µM | > 250 µM |
| COC(=O)NC(Nc1ccc(C)cc1)(C(F)(F)F)C(F)(F)F | > 100 µM | > 100 µM | > 100 µM | > 100 µM | > 100 µM | 93.9 µM | > 100 µM | > 100 µM | > 100 µM | > 100 µM | > 100 µM |
| OCC1c2ccccc2-n2nc(-c3ccccc3)c(O)c21 (stereo unspecified) | 37.6 µM | 32.1 µM | > 100 µM | > 100 µM | 30.6 µM | 31.9 µM | > 100 µM | > 100 µM | > 100 µM | 85.1 µM | 79.2 µM |
| CCC(=O)Nc1ccc(N2C(=O)/C(=C/c3ccc(O)c(OC)c3)N=C2c2ccccc2)cc1 | > 100 µM | 95.6 µM | > 100 µM | > 100 µM | 89.9 µM | 48.4 µM | > 100 µM | > 100 µM | > 100 µM | 44.9 µM | > 100 µM |
| O=C1Sc2cc3ccccc3cc2C(=O)Sc2cc3ccccc3cc21 | > 89.2 µM | 59 µM | > 100 µM | > 75 µM | > 63.6 µM | 35.7 µM | > 100 µM | > 100 µM | > 100 µM | > 100 µM | > 63.5 µM |
| Cc1ccc(S(=O)(=O)CC2CCCn3c2c(C#N)c2ccccc23)cc1 (stereo unspecified) | > 100 µM | > 100 µM | > 100 µM | > 100 µM | > 100 µM | > 100 µM | > 100 µM | > 100 µM | > 100 µM | > 100 µM | > 100 µM |
| Cc1ccc(C2(N3CCOCC3)OC(C)(C)c3cccc4cccc2c34)cc1 (stereo unspecified) | 33.6 µM | 32.4 µM | 29 µM | 60.4 µM | 31.6 µM | 31.5 µM | 46 µM | 34.8 µM | 35.2 µM | 33.6 µM | 34.4 µM |
| Nc1cc2ncnc(Nc3cccc(Br)c3)c2cn1 | > 100 µM | > 100 µM | > 100 µM | > 100 µM | > 100 µM | > 100 µM | > 100 µM | > 100 µM | – | > 100 µM | > 100 µM |
| O=C1/C(=C/c2cccs2)N=C(c2ccccc2)N1c1nc2ccccc2s1 | > 100 µM | > 100 µM | > 100 µM | > 100 µM | > 100 µM | 90.7 µM | 38.9 µM | > 100 µM | > 100 µM | > 100 µM | > 100 µM |
| O=C1c2ccccc2C2(c3ccc(Cl)cc3)N[C@@H]3CCCC[C@@H]3N12 (stereo partly specified) | > 100 µM | > 100 µM | > 100 µM | > 100 µM | > 100 µM | > 100 µM | > 100 µM | > 100 µM | > 100 µM | > 100 µM | > 100 µM |
